Measurements reported in patent US20250381109A1, “KERATIN TREATMENT FORMULATIONS AND METHODS” (Olaplex, Inc., priority 2014, published 2025).

Assays:
[1] = Traditional perm versus perm using maleic acid (Example 6); conditions: perm after ammonium thioglycolate or dithiothreitol; after 40 cycles of washing and drying
[2] = Hair breakage due to repeated application of traditional perm and the active agent formulation (Example 7); conditions: after dithiothreitol or ammonium thioglycolate; procedure repeated three times over a 48 hour time period
[3] = Hair treated with bleaching formulation applied simultaneously with active agent formulation versus bleaching formulation alone (Example 4); parameters: species or system human; conditions: 3.5 g of 12 wt % in water added to bleaching mixture, two hours
Method: (§1) (1) 0.5 ounces of powder lightener (Clairol Professional, Basic White) and 0.5 ounces of conditioning cream developer (Redken, Blonde Icing) were combined to form a bleaching mixture. 3.5 g of 2-(methacryloyloxy)ethan-1-aminium (Z)-3-carboxyacrylate (12 wt % in water) was added to the bleaching mixture and thoroughly mixed with a brush.
(§2) (2) The bleaching mixture prepared was brushed onto the swatches of hair with a brush in order to thoroughly coat the strands of hair. The mixture coated hair was wrapped in aluminum paper and allowed to stand under ambient conditions for a period of two hours.
(§3) (3) After the two hour bleaching period the swatches of hair were washed with shampoo and the hair was subsequently allowed to air dry.

[4] = Hair treated with bleaching formulation applied simultaneously with active agent formulation versus bleaching formulation alone (Example 5); parameters: species or system human; conditions: 3.5 g of 10 wt % in water added to bleaching mixture, two hours
Method: as §1, with “prop-2-en-1-aminium” for “2-(methacryloyloxy)ethan-1-aminium”, “(10” for “(12”
as §2, §3

For OO [hydrogen peroxide], which “reduction in the overall curl” value [1] is on record?
Its value is “only slight reduction in the overall curl”.

What about the “breakage upon visual inspection” value [2] of the same molecule?
Its value is “significant breakage”.

Which results are given for C=C(C)C(=O)OCCN.O=C(O)/C=C\C(=O)O [2-(methacryloyloxy)ethan-1-aminium (Z)-3-carboxyacrylate]?
appearance [3]: healthy appearance; breakage [3]: no discernible breakage; feel [3]: great feel

Which appearance [4] does the source give for C=CCN.O=C(O)/C=C\C(=O)O [prop-2-en-1-aminium (Z)-3-carboxyacrylate] here?
The appearance was “healthy appearance”.

And the breakage [4]?
The breakage was “no discernible breakage”.

What about the feel [4] of the same molecule?
The feel was “great feel”.
